Data published in patent publication US20200237738A1, “PHARMACEUTCAL COMPOSITION FOR PREVENTING OR TREATING CANCER, CONTAINING STREPTONIGRIN AND RAPAMYCIN AS ACTIVE INGREDIENTS” (MD BIOLAB CO., LTD., priority 2017, published 2020).

Assays:
[1] = tested on: renal cancer cell line (ACHN cells and CAKI-1 cells); test: Trypan blue live cell count, renal cancer cell line (cell line not distinguished); format: cell-based; settings: 48 h, read-out: cell viability relative to untreated control
Description: Specifically, after ACHN cells which are a renal cancer cell (RCC) line and CAKI-1 cells (provided by the National Cancer Center, Korea) were each inoculated into an RPM1640 medium containing 10% FBS and cultured, and then further cultured for 48 hours after being treated with 10 nM rapamycin and/or 10 nM streptonigrin in combination or alone. After the culture, cells were stained by treating respective cells with 0.4% trypan blue, and live and dead cells were sorted and counted. For the number of counted cells, the ratio of the number of relative live cells was calculated based on the number of live cells of an untreated control which had not been treated with rapamycin and streptonigrin.
Specifically, the relative ratio of the number of live cells was calculated in the same manner as in Example <2-1>, using 5 μM of pazopanib and 2 nM of streptonigrin.

[2] = tested on: CAKI-1 renal cancer cell line xenograft; test: CD31 immunohistochemistry of tumors in CAKI-1 xenograft mouse model; format: in vivo, mice
Description: Specifically, a mouse model was prepared by xenografting mice with a CAKI-1 cell line which is a renal cancer cell line. And then, the formation of a tumor was observed after administering streptonigrin to the mouse model at a dose of 0.1 mg/kg or 0.2 mg/kg, and breeding the mice. After the xenografting, a biopsy tissue sample was obtained by excising tumor sites, and the level of expression of CD31-positive cells, which are a blood vessel specific marker, was confirmed by immunohistochemically staining the sample.

[3] = tested on: human umbilical vein endothelial cells (HUVECs); test: BrdUrd labeling assay (proliferation) in HUVECs; format: cell-based; settings: compared to siCTL control
Description: Specifically, human umbilical vein endothelial cells (HUVECs) were inoculated into a medium and cultured, and then further cultured after the medium was treated with siRNA of siCTL or siTGase2 (siTG2) and VEGF as a vascular growth promoting factor. After cells treated with the siRNA and VEGF were cultured, the medium was again treated with bromodeoxyuridine (BudUrd), a BrdUrd labeling assay was performed. For quantification, BrdUrd-positive cells were counted among the cells grown on the medium. For the counted cells, the number of BrdUrd-positive cells in the siCTL-treated and VEGF-untreated groups was used as a reference, and the number of BrdUrd cells in each experimental group was obtained as a relative percentage.

[4] = tested on: human umbilical vein endothelial cells (HUVECs); test: Migration of HUVECs; format: cell-based; settings: compared to siCTL control
[5] = tested on: human umbilical vein endothelial cells (HUVECs); test: Angiogenesis analysis (tube segments on Matrigel) in HUVECs; format: cell-based; settings: compared to siCTL control
Description: At the same time, an angiogenesis analysis was also performed. Cells were allowed to adhere to the well surface and cultured by inoculating HUVEC cells into Matrigel-coated wells. Cells were further cultured by adding VEGF and each siRNA to the medium, and then tube segments formed were counted using an angiogenesis assay kit.

Compound | viability at 0.01 µM [1] [%] | number of CD31-positive cells with increasing dose ([2]; streptonigrin 0.1 mg/kg or 0.2 mg/kg) | level of CD31-positive cells relative to control ([2]; streptonigrin 0.2 mg/kg, tumor biopsy) | proliferation of cells (BrdUrd-positive cells) [3] | migration of cells [4] | angiogenesis degree (tube formation) [5]
CO[C@H]1C[C@@H]2CC[C@@H](C)[C@@](O)(O2)C(=O)C(=O)N2CCCC[C@H]2C(=O)O[C@H]([C@H](C)C[C@@H]2CC[C@@H](O)[C@H](OC)C2)CC(=O)[C@H](C)/C=C(\C)[C@@H](O)[C@@H](OC)C(=O)[C@H](C)C[C@H](C)/C=C/C=C/C=C/1C [rapamycin] | ≥ 90 |  |  |  |  | 
COC1=C(N)C(=O)c2nc(-c3nc(C(=O)O)c(C)c(-c4ccc(OC)c(OC)c4O)c3N)ccc2C1=O [streptonigrin] | ≥ 65 | decreased | about 20% |  |  | 
VEGF |  |  |  | sharply increased | sharply increased | sharply increased
